Tests used:
retinal ganglion cells = assay: RGC density (TuJ-1+, CFP+) in retinal wholemounts of MB-injected mice; type: in vivo, mouse
Experimental: FIG. 2 confirms that the mouse model for glaucoma causes RGC degeneration. Specifically, microbeads (MBs) were injected into the anterior chamber of a mouse eye. The MBs increase intraocular IOP above 15 mm Hg by blocking outflow of the aqueous humor within the anterior chamber of the eye. MBs were reinjected as needed to maintain a high IOP, typically one injection every two weeks. Contralateral eyes were injected intraocularly with the vehicle PBS (phosphate buffered saline) as controls. […] IOP levels were measured at least twice weekly before and after intraocular injections. After injections, mice recovered for 48 hours before IOP measurements resumed. Following 4 or 8 weeks of IOP elevation, mice were intracardially perfused with 4% paraformaldehyde in 1× PBS to fix the retinas. Retinas were then removed and processed for immunohistochemistry (IHC). Whole retinas were rinsed with 1× PBS three times at room temperature then incubated in blocking buffer (1× PBS+1% BSA). […] The density of RGCs was imaged with a confocal microscope (Zeiss LSM 510) and quantified by counting NeuN-, CFP- and/or Tuj-1-labeled somata in the RGC layer of the retinal wholemount preparation. […]
RGD density was quantified in retinas isolated from TuJ-1^+ mice and transgenic Thy1-CRP^+ transgenic mice that had been injected with either MBs or vehicle (PBS) then dosed with either compound 1 or vehicle (PBS). […] TuJ-1 was quantified by immunohistochemistry using a Tuj-1-specific antibody conjugated to a fluorescent Alexa 488 or Alexa 594 secondary antibody. […] For fluorescence immunocytochemistry, retinal wholemounts were washed in PBS, then placed for 30 min. to 1 hour in blocking solution (10 ml PBS, 30 μL Triton-X 100, 100 mg bovine serum albumin, 100 μL 10% w/v Na azide solution) in OCT (Ted Pella, Redding, Pa.). […]

retinal ganglion cell = assay: High-Speed Pressure Clamp, pressure-induced inward currents; type: cell-based; details: voltage-clamped retinal ganglion cell, pressure steps 10 to 50 mm Hg
Experimental: The cell was voltage clamped and stimulated with the High-Speed Pressure Clamp method, as detailed by Besch et al (Pflugers Arch. 2002 October; 445(1):161-6). This method consists of a specialized headstage coupled to a piezo element in the pressure/vacuum control valve. By balancing the access of pressure to the patch pipette, the device generates rapid and reproducible pressure steps of >±200 mm Hg. Channel activity is recorded in the cell-attached mode or the membrane is “zapped” into the outside-out configuration.

[1] = system: MB mouse model of glaucoma; assay: IOP in microbead (MB) mouse model of glaucoma, IP dosing; type: in vivo; details: 10 mg/kg body weight IP; MB-injected mice
Experimental: FIG. 2 confirms that the mouse model for glaucoma causes RGC degeneration. Specifically, microbeads (MBs) were injected into the anterior chamber of a mouse eye. The MBs increase intraocular IOP above 15 mm Hg by blocking outflow of the aqueous humor within the anterior chamber of the eye. MBs were reinjected as needed to maintain a high IOP, typically one injection every two weeks. Contralateral eyes were injected intraocularly with the vehicle PBS (phosphate buffered saline) as controls. […] IOP levels were measured at least twice weekly before and after intraocular injections. After injections, mice recovered for 48 hours before IOP measurements resumed. […] Retinas were then removed and processed for immunohistochemistry (IHC). […] After rinsing with PBS, PBS containing the secondary antibody conjugated to fluorophores (Alexa 488 or Alexa 594; […] Retinas were rinsed and flat-mounted on microscope slides. Mounting medium was added and retinal wholemounts were coverslipped. The density of RGCs was imaged with a confocal microscope (Zeiss LSM 510) and quantified by counting NeuN-, CFP- and/or Tuj-1-labeled somata in the RGC layer of the retinal wholemount preparation. Injection of microbeads induces RGC degeneration after 8 weeks but not after 4 weeks. […] Mice were sedated with IP injection of Avertin with final amount calculated by weight (e.g., 0.5 ml for 21-24 g animals). […]

## Cc1c(C(=O)Nc2cccc(C(F)(F)F)c2)cc(-c2ccccc2)n1CCCN1CCOCC1 [Compound 1, N-(3-(trifluoromethyl)phenyl)-2-methyl-1-(3-morpholinopropyl)-5-phenyl-1H-pyrrole-3-carboxamide]
Retinal ganglion cells; MB-injected mice
  TuJ-1+ cells in alpha, beta and omega regions: rescues RGCs across all regions of the retina
Retinal ganglion cells; MB-injected mice, 8 weeks of increased IOP
  density of RGCs (TuJ-1+ and Thy1:CFP+ cells): RGC loss was rescued
Retinal ganglion cells; Thy1-CFP transgenic mice, MB-injected
  CFP+ cells in alpha, beta and omega regions: rescues RGCs across all regions of the retina
Retinal ganglion cell
  pressure-induced inward currents: reversibly antagonized
[1]
  MB-induced increase in IOP: blocked the increase in IOP to the level observed in control mice

Reference: US20150133411A1, “COMPOUNDS WITH TRPV4 ACTIVITY, COMPOSITIONS AND ASSOCIATED METHODS THEREOF” (The University of Utah Research Foundation, priority 2012, published 2015)
